The source of these data is patent publication US12441706B2, “Protein degradation agent compound preparation method and application” (SHANGHAI JEMINCARE PHARMACEUTICALS CO., LTD., priority 2019, dated 2025).

Where two headings read alike, the source gives them in different places.

One data set has as its target T1, androgen receptor (Homo sapiens, UniProt P10275, T878A).
T1 construct: endogenous in cells; host or cells: LNCaP cells
T1 sequence (P10275 1-920 T878A): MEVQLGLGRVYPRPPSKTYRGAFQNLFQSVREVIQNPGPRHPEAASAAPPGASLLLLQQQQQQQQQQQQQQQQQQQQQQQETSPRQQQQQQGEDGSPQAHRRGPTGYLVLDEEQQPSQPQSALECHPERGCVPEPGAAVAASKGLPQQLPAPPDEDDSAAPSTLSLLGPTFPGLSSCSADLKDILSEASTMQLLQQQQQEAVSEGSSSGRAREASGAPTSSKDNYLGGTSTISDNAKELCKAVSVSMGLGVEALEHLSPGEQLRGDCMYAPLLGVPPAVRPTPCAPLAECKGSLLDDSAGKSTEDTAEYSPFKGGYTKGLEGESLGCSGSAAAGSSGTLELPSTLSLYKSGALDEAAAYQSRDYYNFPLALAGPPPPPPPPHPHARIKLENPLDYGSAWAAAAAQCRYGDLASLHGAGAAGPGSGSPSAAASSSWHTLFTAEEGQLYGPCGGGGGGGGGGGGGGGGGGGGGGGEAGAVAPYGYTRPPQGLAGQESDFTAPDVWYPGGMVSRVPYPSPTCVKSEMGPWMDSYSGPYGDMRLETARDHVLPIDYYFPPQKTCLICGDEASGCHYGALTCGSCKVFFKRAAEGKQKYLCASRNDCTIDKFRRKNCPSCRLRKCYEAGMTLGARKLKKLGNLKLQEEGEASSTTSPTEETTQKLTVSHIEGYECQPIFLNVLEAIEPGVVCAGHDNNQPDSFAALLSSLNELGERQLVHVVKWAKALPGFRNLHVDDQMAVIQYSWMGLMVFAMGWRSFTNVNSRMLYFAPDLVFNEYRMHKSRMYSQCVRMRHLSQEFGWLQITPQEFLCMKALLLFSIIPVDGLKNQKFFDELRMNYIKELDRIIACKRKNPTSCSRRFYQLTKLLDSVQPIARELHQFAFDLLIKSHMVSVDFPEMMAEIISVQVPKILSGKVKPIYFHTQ
The data set can be described thus: In-Cell-Western determination of androgen receptor degradation in LnCaP cells. The note with it: for DC50: concentration for half of the maximal degradation of AR in LnCaP cells. In kind it is cell-based. Here is the method: The determination evaluated the properties of the compounds in Lncap cells. Intracellular androgen receptor was determined by In-Cell-Western according to the determination steps described below.
In poly-D-Lysin pretreated 96-well cell culture plate (Corning 3599), LNcap cells were divided into 100 μL/well volume, and inoculated with 30,000 cells/well in LNcap cell assay medium [DMEM containing phenol red (Gibco catalog number: 11995065); fetal bovine serum FBS (Gibco catalog number: 10099141C)]. Cells were cultured for at least two days.
1. First treated cells with compound. Compounds were gradient diluted with DMSO and cell culture medium, so that DMSO contained in cell culture plates was diluted to 0.5% —polypropylene plates were used according to the following protocol: (1)(i) 200× stock plate in DMSO was prepared; (ii) 10 mM stock solution was diluted 1:4 with DMSO (10 μL stock solution+40 μL DMSO)=2000 μM, then entered into row 2; (iii) 1:4 (10 μL protac+40 μL DMSO) gradient dilution was performed from row 2 to row 9, and row 1 was reserved for […] reference compound and row 10 for DMSO. (iv) A total of 8 concentrations (final concentrations on the 200× plate were 2000 μM, 400 μM and 80 μM, etc.). (2) (i) 3× stock solution was prepared in the medium. (ii) 3 μL of 200× stock solution was transferred to 197 µL of culture medium (using 12-channel pipette, from line 1 to line 10), i.e. 3× stock solution plate. (iii) The stock solution plate was mixed evenly. (3) (i) The culture medium of […] cells was replaced with fresh culture medium, 100 μL volume culture medium. (ii) The well-mixed 3× stock solution was transferred to the cell culture plate (using a 12-channel pipette, and 50 μL of stock solution was transferred from line 1 to line 10). (iii) Cells were cultured for 24 hours.
2. The expression level of intracellular androgen receptor after compound treatment was […] and determined according to the following method.
(1)(i) Equal volume of 8% paraformaldehyde was added to the cell culture plate for cell fixation. The fixing solution in the cell plate was discarded and washed three times with PBS. (ii) Triton solution (1:1000 dilution of the stock solution) was prepared. The solution in the cell plate was discarded, and 200 μL of Triton diluent was added into each well. (iii) 2×blocking solution (1:4 dilution of 10×blocking stock solution) was prepared. The solution in the cell plate was discarded, and 100 μL of 2×blocking solution was added into each well. (iv) Primary antibody solution (Androgen receptor Rabbbit mAb, Cell Signaling Technology catalog number: 5153; 1:1000 dilution) was prepared. The solution in the cell plate was discarded, 100 μL volume of primary antibody diluent was added to each well, and incubated at 4° C. overnight. (v) The primary antibody solution was discarded and the cell plate was washed with 1×Wash buffer. (vi) Secondary antibody solution (GOAT Antirabbit IgG (H+L), HRP, Thermo catalog number: 31460; 1:5000 dilution) was prepared, and 100 μL volume of secondary antibody dilution was added to each well for incubation. (vii) The secondary antibody solution in the cell plate was discarded and the cell plate was washed with 1×Wash buffer. (viii) TMB chromogenic solution (BD catalog number: 550534) was prepared, and 100 μL chromogenic solution was added into each well. (ix) 50 μL volume of stop solution (BD catalog number: 550534) was added to each well. (x) The absorption values at OD 450 nm and 570 nm were read though EnVision. (2) (i) Normalized analysis was performed on the number of cells in each well. The solution in the cell plate was discarded, and washed with wash buffer for three times. (ii) Janus dilution (1:3 dilution) was prepared. (iii) 50 μL volume diluent was added to each well for incubation. (iv) The solution in the plate was discarded and washed with deionized water. […]

A short description of data set [1]: In vivo pharmacokinetics in mice, intravenous injection and oral administration. The arrangement: species or system mouse. The note with it: male CD1 mice. On the procedure:
In this experimental example, in vivo pharmacokinetics in mice were evaluated by intravenous injection and oral administration.
Experimental methods and conditions: Male CD1 mice, aged 6-8 weeks, all animals were free access to food and water, and were given a single dose of the compound to be tested at 1 mg/Kg by intravenous injection (solvent 5% DMSO/15% Solutol/80% Saline), at 5 min, 15 min, 30 min, 1 hr, 2 hr, 4 hr, 8 hr, 24 hr, 48 h after drug administration, or oral gavage administration of 10 mg/kg (solvent 5% DMSO/10% Solutol/85% Saline), at 15 min, 30 min, 1 hr, 2 hr, 4 hr, 6 h, 8 hr, 24 hr, 48 h after administration, blood was collected from the orbit, no less than 50 μL for each sample, heparin sodium was used for anticoagulation, and then placed on ice after collection, and centrifuged within 1 hour to separate the plasma for testing. The plasma concentration of the drug was detected by liquid tandem mass spectrometry (LC/MS/MS), and the pharmacokinetic parameters were calculated by Phoenix WinNonlin software.

In the next data set the test system is LNcap FGC cells. The data set can be described thus: Inhibition of proliferation of LNcap FGC cells (Cell Titer Glo, 6 days). Type of data set: cell-based. The note with it: Homo sapiens, 144 h. Here is the method: Tumor cell line LNcap FGC (ATCC catalog number CRL-1740) was cultured in RPMI 1640 (Gibco catalog number 11875-093) and DMEM (Gibco catalog number. 11965-092) medium containing 10% FBS (Gibco catalog number 10099-141C), respectively.
(§1) LNcap FGC cells were inoculated in a 384-well plate (Perkin Elmer catalog number 6007460) at a cell density of 400 cells/well in a volume of 20 μL/well and incubated overnight in a carbon dioxide incubator (Thermo). The prepared compound solutions of different concentrations were added in a volume of 5 μL/well. The corresponding vehicle control was set at the same time. After being cultured in the incubator for 6 days, the cell plate and the contents were equilibrated to room temperature, and 25 μL of Cell Titer Glor (Promega catalog number G7573) was added to each well, shook and mixed well, incubated in dark for 10-30 minutes, and the signal values were detected with Envision microplate reader (PerkinElmer).
The percentage inhibition rate of compound-treated wells was calculated from the vehicle control wells on the plate, and the percentage inhibition rate data corresponding to different concentrations were fitted by GraphPad prism, and the IC50 values were calculated by 4-parameter nonlinear logic formula.

A further data set has as its system VCap cells. The data set can be described thus: Inhibition of proliferation of VCap cells (Cell Titer Glo, 6 days). The note with it: Homo sapiens, 144 h. In kind it is cell-based. Here is the method: Tumor cell line VCap FGC (ATCC catalog number CRL-2876) was cultured in DMEM (Gibco catalog number 11965-092) medium containing 10% FBS (Gibco catalog number 10099-141C), respectively. During the determination, Vcap cells were replaced with DMEM medium containing 5% FBS and 0.1 nM R1881 (Sigma catalog number R0908).
as §1, with “Vcap” for “LNcap”, “1200” for “400”, “shake” for “shook”, “mix” for “mixed”, “though” for “with”
The percentage inhibition rate of compound-treated wells was calculated from vehicle control wells on the plate, and the percentage inhibition rate data corresponding to different concentrations were fitted by GraphPad prism, and the IC50 values were calculated by 4-parameter nonlinear logic formula.

The mark [2] stands for this setting: mouse, intravenous administration 1 mg/kg, plasma.
Setting [3] is: mouse, oral administration 10 mg/kg, plasma.
The mark [4] stands for this setting: LnCaP cell proliferation, 6 days, read-out: IC50.
The mark [5] stands for this setting: maximum degree of inhibition of LnCaP cell proliferation, 6 days, read-out: Emax.

In the case of `CC1(C)C(=O)N(c2ccc(C#N)c(Cl)c2)c2ccc(-c3ccc(N4CC(CN5CCN(c6cc7c(cc6F)C(=O)N(C6CCC(=O)NC6=O)C7=O)CC5)C4)cc3)cc21` (centres unmarked) [Compound 7], the Dmax on androgen receptor (LNCaP) was 75%. The same compound gave a DC50 on androgen receptor (24 hours treatment) of 72.1 nM.

For the compound `CC1(C)C(=O)N(c2ccc(C#N)c(Cl)c2)c2ccc(-c3ncc(N4CC(CN5CCN(c6ccc7c(c6)C(=O)N(C6CCC(=O)NC6=O)C7=O)CC5)C4)cn3)cc21` (centres unmarked) [Compound 6], in data set [1] (oral administration 10 mg/kg vs intravenous 1 mg/kg), the F was 71.3%. In data set [1] (setting [2]), this compound gave an AUC(0-inf) of 9860 ng·h/mL, a clearance of 1.69 mL/min/kg and a half-life of 11.2 h. In data set [1] (setting [3]), this compound gave an AUC(0-inf) of 70300 ng·h/mL, a Cmax of 2920 ng/mL and a half-life of 11.2 h. Besides, in the data set on LNcap FGC cells (LNCaP), the Emax was 99% and the IC50 stood at 76.7 nM. For the same compound, in the data set on VCap cells (VCaP), the Emax worked out at 94% and the IC50 turned out to be 81 nM.

`CC1(C)C(=O)N(c2ccc(C#N)c(Cl)c2)c2ccc(-c3ccc(N4CC(CN5CCN(c6ccc7c(c6)CN(C6CCC(=O)NC6=O)C7=O)CC5)C4)cc3)cc21` (centres unmarked) [Compound 4] came in with a Dmax at androgen receptor (LNCaP) of 91%. Further, half-maximal degradation at androgen receptor (24 hours treatment) (DC50) was put at 108 nM.

`CC1(C)C(=O)N(c2ccc(C#N)c(Cl)c2)c2ccc(-c3ccc(N4CC(F)(CN5CCN(c6ccc7c(c6)C(=O)N(C6CCC(=O)NC6=O)C7=O)CC5)C4)cc3)cc21` (centres unmarked) [Compound 5]: in the data set on LNcap FGC cells (setting [4]), the IC50 was determined as 95.7 nM. The Emax in the data set with LNcap FGC cells (setting [5]) turned out to be 93%.

In the data set with LNcap FGC cells (LNCaP), `CC1(C)C(=O)N(c2ccc(C#N)c(Cl)c2)c2ccc(-c3ccc(-c4cnn(CCN5CCN(c6ccc7c(c6)C(=O)N(C6CCC(=O)NC6=O)C7=O)CC5)c4)cc3)cc21` (centres unmarked) [Compound 12] yielded an Emax of 68% and an IC50 of 82 nM. This compound also came in with a Dmax on androgen receptor (LNCaP) of 75%. On androgen receptor (24 hours treatment), this compound had a DC50 of 78.8 nM.

For `CC1(C)C(=O)N(c2ccc(C#N)c(C(F)(F)F)c2)c2ccc(-c3ccc(N4CC(CN5CCN(c6ccc7c(c6)C(=O)N(C6CCC(=O)NC6=O)C7=O)CC5)C4)nc3F)cc21` (centres unmarked) [Compound 15], the Dmax at androgen receptor (LNCaP) is 67%. The DC50 at androgen receptor (24 hours treatment) is 3.49 nM. Further, in the data set with VCap cells (VCaP), the Emax amounted to 92% and the IC50 amounted to 82 nM.

For the compound `CC1(C)C(=O)N(c2ccc(C#N)c(Cl)c2)c2ccc(-c3cnc(N4CC(CN5CCN(c6ccc7c(c6)C(=O)N(C6CCC(=O)NC6=O)C7=O)CC5)C4)cn3)cc21` (centres unmarked) [Compound 10], the IC50 with LNcap FGC cells (setting [4]) came out at 39.4 nM; in the data set with VCap cells (VCaP cell proliferation, 6 days, 5% FBS and 0.1 nM R1881, read-out: IC50), 50 nM. The Emax with LNcap FGC cells (setting [5]) came out at 100%; in the data set with VCap cells (maximum degree of inhibition of VCaP cell proliferation, 6 days, 5% FBS and 0.1 nM R1881, read-out: Emax) it was 98%.

On to `COc1cc(N2C(=O)C(C)(C)c3cc(-c4ccc(N5CC(CN6CCN(c7ccc8c(c7)C(=O)N(C7CCC(=O)NC7=O)C8=O)CC6)C5)cc4)ccc32)ccc1C#N` (centres unmarked) [Compound 2], for which, in the data set with LNcap FGC cells (setting [4]), the IC50 amounted to 89.1 nM. Further, in the data set on LNcap FGC cells (setting [5]), the Emax stood at 98%.

For `CC1(C)C(=O)N(c2cnc(C#N)c(Cl)c2)c2ccc(-c3ccc(N4CC(CN5CCN(c6ccc7c(c6)C(=O)N(C6CCC(=O)NC6=O)C7=O)CC5)C4)cc3)cc21` (centres unmarked) [Compound 11], the DC50 on androgen receptor (24 hours treatment, read-out: DC50) is 74.7 nM. Besides, the Dmax at androgen receptor (maximum degradation of AR in LnCaP cells, 24 hours treatment, read-out: Dmax) was found to be 74%.

As for `CC1(C)C(=O)N(c2ccc(C#N)c(Cl)c2)c2ccc(-c3ccc(-c4cnn(CCCN5CCN(c6ccc7c(c6)C(=O)N(C6CCC(=O)NC6=O)C7=O)CC5)c4)cc3)cc21` (centres unmarked) [Compound 13], at androgen receptor (LNCaP), the Dmax was 100%. Moreover, the DC50 on androgen receptor (24 hours treatment) was 73.4 nM.
